Measurements taken from the supplement of paper PMC10307832.

Columns and labels:
Assay in all cases: relative viability (nuclei count vs DMSO), 5 days (fraction); higher = more cells survive
[1] = compound: C1=CC2=C(C=C(C(=C2N=C1)O)N=NC3=CC4=C(C=C3)C=C(C=C4)S(=O)(=O)O)S(=O)(=O)O + COc1cccc2cc(-c3nc([C@H]4CC[C@H](C(=O)O)CC4)n4ncnc(N)c34)[nH]c12 [OSI-027] (partner 0.5 µM)
Outline: (§1)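 Lung cancer cell lines in 1536-well plates were dosed by pin tool the day after seeding, either with one drug alone or with a fixed anchor-drug dose plus five library-drug doses (not always all listed) in √10 steps. After 5 days, cells were fixed and their nuclei stained in one step (final 0.05% Triton X-100, 1% formaldehyde, 1 ug/ml Hoechst), then counted on 4× images. Relative viability is the nuclei count in treated wells divided by that in vehicle wells. Values are medians of duplicate plates.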

[2] = compound: C1=CC2=C(C=C(C(=C2N=C1)O)N=NC3=CC4=C(C=C3)C=C(C=C4)S(=O)(=O)O)S(=O)(=O)O + CS(=O)(=O)N1CCN(Cc2cc3nc(-c4cccc5[nH]ncc45)nc(N4CCOCC4)c3s2)CC1 [Pictilisib] (partner 1 µM)
Outline: as §1

[3] = compound: C1=CC2=C(C=C(C(=C2N=C1)O)N=NC3=CC4=C(C=C3)C=C(C=C4)S(=O)(=O)O)S(=O)(=O)O + C[C@]1(O)C[C@@H](c2nc(-c3ccc4ccc(-c5ccccc5)nc4c3)c3c(N)nccn32)C1 [Linsitinib] (partner 1 µM)
Outline: as §1

[4] = compound: C1=CC2=C(C=C(C(=C2N=C1)O)N=NC3=CC4=C(C=C3)C=C(C=C4)S(=O)(=O)O)S(=O)(=O)O + Cc1cc(Nc2cc(N3CCN(C)CC3)nc(Sc3ccc(NC(=O)C4CC4)cc3)n2)n[nH]1 [Tozasertib] (partner 0.1 µM)
Outline: as §1

Row | Cell Line | relative viability ([1]; first compound 0.08 µM) | relative viability ([1]; first compound 0.253 µM) | relative viability ([1]; first compound 0.8 µM) | relative viability ([1]; first compound 2.53 µM) | relative viability ([1]; first compound 8 µM) | relative viability ([2]; first compound 0.08 µM) | relative viability ([2]; first compound 0.253 µM) | relative viability ([2]; first compound 0.8 µM) | relative viability ([2]; first compound 2.53 µM) | relative viability ([2]; first compound 8 µM) | relative viability ([3]; first compound 0.08 µM) | relative viability ([3]; first compound 0.253 µM) | relative viability ([3]; first compound 0.8 µM) | relative viability ([3]; first compound 2.53 µM) | relative viability ([3]; first compound 8 µM) | relative viability ([4]; first compound 0.08 µM) | relative viability ([4]; first compound 0.253 µM) | relative viability ([4]; first compound 0.8 µM) | relative viability ([4]; first compound 2.53 µM) | relative viability ([4]; first compound 8 µM)
1 | NCI-H2009 | 0.574 | 0.6 | 0.645 | 0.642 | 0.71 | 0.789 | 0.82 | 0.757 | 0.747 | 0.761 | 1.21 | 1.07 | 1.21 | 1.2 | 1.19 | 0.766 | 0.756 | 0.741 | 0.842 | 0.562
2 | NCI-H2023 | 0.434 | 0.431 | 0.454 | 0.367 | 0.552 | 0.218 | 0.261 | 0.257 | 0.251 | 0.298 | 0.675 | 0.593 | 0.69 | 0.675 | 0.653 | 0.398 | 0.311 | 0.411 | 0.347 | 0.36
3 | NCI-H2085 | 0.901 | 0.716 | 0.716 | 0.974 | 0.842 | 0.38 | 0.465 | 0.406 | 0.571 | 0.497 | 1.06 | 0.927 | 0.978 | 0.821 | 0.892 | 0.928 | 0.742 | 0.784 | 0.886 | 0.813
4 | NCI-H2087 | 0.563 | 0.536 | 0.477 | 0.61 | 0.682 | 1.07 | 0.863 | 0.77 | 0.945 | 0.909 | 1 | 1.12 | 0.82 | 0.964 | 1.15 | 0.237 | 0.258 | 0.238 | 0.237 | 0.267
5 | NCI-H2126 | 0.723 | 0.662 | 0.588 | 0.658 | 0.632 | 0.505 | 0.518 | 0.506 | 0.522 | 0.523 | 0.72 | 0.688 | 0.718 | 0.752 | 0.731 | 0.911 | 0.824 | 0.843 | 0.938 | 0.792
6 | NCI-H2228 | 0.765 | 0.688 | 0.653 | 0.57 | 0.592 | 0.435 | 0.427 | 0.289 | 0.567 | 0.291 | 0.653 | 0.611 | 0.598 | 0.634 | 0.777 | 0.264 | 0.269 | 0.279 | 0.233 | 0.295
7 | NCI-H2347 | 0.505 | 0.532 | 0.5 | 0.341 | 0.392 | 0.651 | 0.585 | 0.541 | 0.657 | 0.683 | 1.01 | 0.894 | 0.881 | 1.03 | 1.03 | 0.59 | 0.57 | 0.52 | 0.741 | 0.573
8 | NCI-H2405 | 0.649 | 0.599 | 0.602 | 0.644 | 0.6 | 0.496 | 0.432 | 0.33 | 0.418 | 0.28 | 0.909 | 0.873 | 0.943 | 1.04 | 0.948 | 0.894 | 0.811 | 0.782 | 0.82 | 0.711
9 | NCI-H3122 | 1.09 | 0.919 | 0.899 | 0.856 | 0.922 | 0.629 | 0.552 | 0.555 | 0.616 | 0.638 | 0.998 | 0.962 | 0.969 | 1.01 | 0.96 | 0.371 | 0.37 | 0.405 | 0.514 | 0.378
10 | PC-3 [JPC-3] | 0.815 | 0.71 | 0.791 | 0.778 | 0.769 | 0.79 | 0.771 | 0.663 | 0.713 | 0.694 | 0.998 | 0.93 | 0.94 | 0.965 | 0.97 | 0.963 | 0.848 | 0.846 | 0.856 | 0.864
11 | PC-14 | 1.16 | 0.861 | 0.819 | 0.833 | 0.837 | 0.845 | 0.682 | 0.621 | 0.585 | 0.673 | 1.03 | 0.936 | 0.962 | 0.948 | 1.1 | 0.607 | 0.574 | 0.55 | 0.646 | 0.594
12 | RERF-LC-KJ | 0.664 | 0.624 | 0.593 | 0.608 | 0.588 | 0.623 | 0.648 | 0.588 | 0.56 | 0.543 | 0.945 | 0.954 | 0.888 | 0.979 | 0.87 | 0.506 | 0.601 | 0.512 | 0.519 | 0.509
13 | SK-LU-1 | 0.424 | 0.366 | 0.38 | 0.338 | 0.354 | 0.615 | 0.55 | 0.57 | 0.61 | 0.621 | 1.38 | 1.13 | 1.14 | 1.14 | 1.03 | 0.32 | 0.286 | 0.303 | 0.331 | 0.336
14 | SK-MES-1 | 0.69 | 0.633 | 0.588 | 0.681 | 0.661 | 0.444 | 0.354 | 0.376 | 0.328 | 0.377 | 1.17 | 1.01 | 1.05 | 1.04 | 1.06 | 1.01 | 0.888 | 0.804 | 0.924 | 0.935
15 | SW 1573 | 0.734 | 0.622 | 0.61 | 0.463 | 0.401 | 0.449 | 0.431 | 0.475 | 0.447 | 0.523 | 0.779 | 0.734 | 0.816 | 0.875 | 0.75 | 0.164 | 0.185 | 0.187 | 0.181 | 0.0943
